Source: patent publication US20250009697A1, “COMPOSITION FOR INCREASING AMOUNT OF FOOD INGESTED AND/OR IMPROVING ANOREXIA, AND COMPOSITION FOR ACTIVATING TRANSIENT RECEPTOR POTENTIAL ANKYRIN 1” (HOUSE FOODS GROUP INC., priority 2021, published 2025)

Key:
[1] = biological target: T1, Human TRPA1 (hTRPA1) (Homo sapiens, UniProt O75762); assay: TRPA1 Activation Test 2: intracellular Ca2+ imaging assay 2-1 to 2-3, hTRPA1 stably expressing cell line; type: cell-based; settings: for TRPA1 activation rate: Table 7; for TRPA1 activation rate, With antagonist: A-967079 1 μM; for TRPA1 activation rate, With antagonist / TRPA1 activation rate, Without antagonist: Table 8
T1 construct: expressed in transfected cells
T1 sequence (O75762 whole entry): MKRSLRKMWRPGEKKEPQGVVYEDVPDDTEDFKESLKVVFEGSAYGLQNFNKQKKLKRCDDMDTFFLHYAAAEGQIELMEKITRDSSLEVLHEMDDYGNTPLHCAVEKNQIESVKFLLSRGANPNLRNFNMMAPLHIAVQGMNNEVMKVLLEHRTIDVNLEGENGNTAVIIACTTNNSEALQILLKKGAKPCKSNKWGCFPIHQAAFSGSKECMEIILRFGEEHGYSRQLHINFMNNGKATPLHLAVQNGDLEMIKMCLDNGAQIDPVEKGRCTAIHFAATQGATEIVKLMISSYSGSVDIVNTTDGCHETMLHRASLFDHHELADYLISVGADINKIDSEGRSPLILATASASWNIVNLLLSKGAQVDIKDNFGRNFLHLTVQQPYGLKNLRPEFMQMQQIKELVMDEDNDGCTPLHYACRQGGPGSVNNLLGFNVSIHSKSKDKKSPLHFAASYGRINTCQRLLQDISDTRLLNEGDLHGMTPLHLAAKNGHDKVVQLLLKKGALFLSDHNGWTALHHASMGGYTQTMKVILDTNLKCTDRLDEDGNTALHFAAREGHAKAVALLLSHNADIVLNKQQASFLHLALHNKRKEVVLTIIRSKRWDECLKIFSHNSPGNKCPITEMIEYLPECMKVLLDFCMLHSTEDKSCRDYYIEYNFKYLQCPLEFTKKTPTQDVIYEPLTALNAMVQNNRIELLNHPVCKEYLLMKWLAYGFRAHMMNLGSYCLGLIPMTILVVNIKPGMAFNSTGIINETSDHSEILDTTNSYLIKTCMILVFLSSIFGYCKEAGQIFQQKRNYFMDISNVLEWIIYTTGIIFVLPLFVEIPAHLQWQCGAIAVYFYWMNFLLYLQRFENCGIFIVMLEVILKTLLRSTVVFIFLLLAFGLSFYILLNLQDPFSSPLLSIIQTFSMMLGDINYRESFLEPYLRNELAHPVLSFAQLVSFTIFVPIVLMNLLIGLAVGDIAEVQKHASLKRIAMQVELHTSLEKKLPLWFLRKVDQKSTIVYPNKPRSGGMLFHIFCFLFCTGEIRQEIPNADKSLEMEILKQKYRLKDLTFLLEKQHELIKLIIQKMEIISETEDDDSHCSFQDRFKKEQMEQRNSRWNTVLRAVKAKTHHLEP
Method: (§1) DNAs encoding genes described in the following Table 2 were inserted into pcDNA 5/TO vector (Invitrogen) to prepare various expression vectors.
(§2) These expression vectors were transfected into T-REx™_293 cells (Invitrogen) by a conventional method using Lipofectamine LTX (Invitrogen). Then, various transfectants were cultured and cloned by a conventional method using Dulbecco's Modified Eagle Medium (DMEM, Nacalai Tesque Inc.), containing 10% fetal bovine serum (FBS, Cytiva), […] of hygromycin B, and 5 μg/mL of blasticidin S, as a drug selection medium to obtain a hTRPA1 stably expressing cell line, a hTRPV1 stably expressing cell line, and a hTRPM8 stably expressing cell line.
(§3) A hTRPA1 stably expressing cell line in which expression of hTRPA1 had been induced in advance by a conventional method was prepared in a 96 well clear bottom plate, and the hTRPA1 activating action of rhein (produced by Tokyo Chemical Industry Co., Ltd.) was tested. Specifically, after each well was washed with PBS, 50 μL of an assay buffer (Hanks' balanced salt solution containing no calcium ion or magnesium ion that contained 1 mM of CaCl2 dihydrate, 20 mM of HEPES, and 0.1% BSA) containing calcium fluorescent indicator Calbryte™ 520 AM (produced by AAT Bioquest) in a final concentration of 4 μM was added, followed by incubating at 33° C. for 45 minutes. After washing with the assay buffer, 100 μL of the assay buffer was added to each well. This plate was set to FlexStation 3 (Molecular Devices, LLC), and a fluorescence intensity (excitation wavelength 490 nm, fluorescence wavelength 525 nm) at 31° C. was measured every two seconds, and 30 seconds after the start of the measurement, 100 μL of an assay buffer containing a test sample (allyl isothiocyanate (AITC) of positive control or rhein) which was prepared to have a certain final concentration or DMSO was added. Then, a well in which an assay buffer containing ionomycin (having a final concentration of 10 μM after the addition) instead of the test samples was added was also prepared as a reference for fluorescence intensity.
(§4) The measurement was continued from the start of the measurement up to 120 seconds, and the TRPA1 activation ability of the test samples was calculated in accordance with the following formula.
(§5) Activation rate (%)=(Fmax[s]−F0)/(Fmax[i]−F0)×100 • Fmax[s]: The maximum value of the fluorescence intensity when the test sample or positive control was added • F0: The average value of the fluorescence intensity for 20 seconds after the start of the measurement (base line) • Fmax[i]: The maximum value of the fluorescence intensity when ionomycin was added
(§6) The TRPA1 activation ability of each test sample was measured in the same manner as in the above (2) except the test was conducted with A-967079 (1 μM), which is a TRPA1-specific antagonist, or without A-967079. In addition, intracellular Ca^2+ imaging assay was conducted in the same manner as in the above (2) except that a hTRPV1 stably expressing cell line, a hTRPM8 stably expressing cell line, or a Mock cell was used instead of the hTRPA1 stably expressing cell line. Note that capsaicin was used as positive control for the hTRPV1 stably expressing cell line, and icilin was used as positive control for the hTRPM8 stably expressing cell line.
A TRPA1 activation ability was measured in the same manner as in the above (2) by using, as a test sample, rhein or compounds described in the following Table 10, which had anthraquinone structures similar to rhein, at a concentration of 200 μM of the test sample.

[2] = Anorexia Improving Test 3: cumulative amounts of food ingested of mice, rhein with or without A-967079; type: in vivo; settings: oral; for Cumulative amounts of food ingested of mice: rhein 100 μmol/kg body weight, A-967079 10 μmol/kg body weight
Method: Male ICR mice were housed in individual cages in which ALPHA-dri (Shepherd Specialty Papers) was laid, and were acclimatized and raised for at least one week or more while a powder feed (CE-2, CLEA Japan, Inc.) was given to the mice by using a powder feeder for mice (SN-950, Shinano Manufacturing Co., Ltd.). Then, for several days before the experiment, handling and oral administration training using a feeding needle (FG4202, Fuchigami Kikai Co., Ltd.) were conducted every day. To 9 week-old mice under ad libitum feeding conditions, a carrier solution (containing 2% of dimethyl sulfoxide and 98% of a 0.5% methyl cellulose solution in volume ratio) or a rhein solution (obtained by dissolving 8.53 mg of rhein in 1 mL of the carrier solution) was orally administered from 9:20 a.m. (10 mL/kg body weight). The dosage of rhein was 300 μmol/kg body weight in terms of molar concentration. Then, a feeder the mass of which had been measured in advance was set in the cage at 9:30 a.m. The masses of the feeder and the feed spilled in the cage 0.5, 1, 2, and 3 hours after the start of the feeding experiment were measured, and the ingested mass (g) at each time was measured (n=6). The ingested mass (g) of each mouse was measured in the same manner as in anorexia improving test 2 (the above item 5) except that 10 mL/kg body weight of a carrier solution, a rhein solution (100 μmol/kg body weight), an A-967079 solution (10 μmol/kg body weight), or a mixed solution of A-967079 and rhein (in 10 μmol/kg body weight and 100 μmol/kg body weight, respectively) was orally administered to the mouse. Results obtained by calculating the cumulative amounts of food ingested and conducting a multiple comparison (multiple t-test) by the Dunn-Bonferroni method are shown in Table 12.

[3] = biological target: T2, Human TRPM8 (hTRPM8) (Homo sapiens, UniProt Q7Z2W7); assay: TRPA1 Activation Test 2: intracellular Ca2+ imaging assay 2-2, hTRPM8 stably expressing cell line; type: cell-based; settings: for TRPM8 activation rate: Table 9
T2 construct: expressed in transfected cells
T2 sequence (Q7Z2W7 whole entry): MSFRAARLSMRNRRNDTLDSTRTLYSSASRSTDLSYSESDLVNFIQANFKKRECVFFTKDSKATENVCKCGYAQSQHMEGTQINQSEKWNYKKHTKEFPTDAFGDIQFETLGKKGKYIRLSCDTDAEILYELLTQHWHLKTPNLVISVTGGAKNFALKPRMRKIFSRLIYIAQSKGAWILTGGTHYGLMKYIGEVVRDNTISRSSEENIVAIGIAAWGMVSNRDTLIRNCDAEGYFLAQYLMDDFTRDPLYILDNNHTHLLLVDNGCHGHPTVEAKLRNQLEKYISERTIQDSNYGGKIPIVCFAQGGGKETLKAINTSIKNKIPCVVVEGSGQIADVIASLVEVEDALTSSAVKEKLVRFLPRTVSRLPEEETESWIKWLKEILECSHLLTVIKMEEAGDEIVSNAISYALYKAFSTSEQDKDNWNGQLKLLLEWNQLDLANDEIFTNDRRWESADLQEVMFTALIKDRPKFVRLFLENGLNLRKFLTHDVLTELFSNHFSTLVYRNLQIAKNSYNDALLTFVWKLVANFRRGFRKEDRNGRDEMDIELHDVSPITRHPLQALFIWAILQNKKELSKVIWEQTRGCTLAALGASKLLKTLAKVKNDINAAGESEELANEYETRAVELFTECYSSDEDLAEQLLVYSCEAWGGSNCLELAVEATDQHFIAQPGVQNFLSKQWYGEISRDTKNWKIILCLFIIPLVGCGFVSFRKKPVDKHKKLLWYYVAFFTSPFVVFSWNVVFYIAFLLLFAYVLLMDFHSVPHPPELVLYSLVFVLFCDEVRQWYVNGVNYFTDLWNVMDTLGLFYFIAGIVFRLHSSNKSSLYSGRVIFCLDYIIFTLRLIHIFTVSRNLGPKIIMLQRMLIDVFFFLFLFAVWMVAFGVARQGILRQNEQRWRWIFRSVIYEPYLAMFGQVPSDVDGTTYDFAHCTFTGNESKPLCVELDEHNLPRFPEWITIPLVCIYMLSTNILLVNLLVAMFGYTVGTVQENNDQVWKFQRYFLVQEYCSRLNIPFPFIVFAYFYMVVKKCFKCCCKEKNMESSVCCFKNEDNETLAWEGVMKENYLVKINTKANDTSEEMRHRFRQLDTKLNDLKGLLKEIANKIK
Method: as §1, §2
as §3, with “This plate was set to FlexStation 3 (Molecular Devices, LLC), and a fluorescence intensity (excitation wavelength 490 nm, fluorescence wavelength 525 nm) at 31° C. was measured every two seconds, and 30 seconds after the start of the measurement, 100 μL of an assay buffer containing a test sample (allyl isothiocyanate (AITC) of positive control or rhein) which was prepared to have a certain final concentration or DMSO was added.” left out
as §4, §5
as §6, with “Note that capsaicin was used as positive control for the hTRPV1 stably expressing cell line, and icilin was used as positive control for the hTRPM8 stably expressing cell line.” left out

O=C(O)c1cc(O)c2c(c1)C(=O)c1cccc(O)c1C2=O [Rhein, rhein]
TRPA1 activating action with TRPA1-specific antagonist (in words) ([1]; A-967079): inhibited by the TRPA1-specific antagonist | TRPA1 activating action (in words) ([1]; hTRPA1 stably expressing cell line): activated TRPA1 in concentration dependent manner | TRPA1 activation rate ([1]; test sample 1 μM): 0.57 ± 0.0414% | TRPA1 activation rate ([1]; test sample 10 μM): 19.1 ± 1.00% | TRPA1 activation rate ([1]; test sample 25 μM): 41.1 ± 1.51% | TRPA1 activation rate ([1]; test sample 50 μM): 66.4 ± 1.45% | TRPA1 activation rate ([1]; test sample 75 μM): 69.7 ± 1.25% | TRPA1 activation rate, With antagonist ([1]; test sample 100 μM): 3.26 ± 0.102 % | TRPA1 activation rate ([1]; test sample 100 μM): 75.5 ± 1.19% | TRPA1 activation rate, Without antagonist ([1]; test sample 100 μM): 79.4 ± 4.08% | TRPA1 activation rate, With antagonist ([1]; test sample 200 μM): 8.40 ± 0.238 % | TRPA1 activation rate ([1]; test sample 200 μM): 85.7 ± 1.62% | TRPA1 activation rate, Without antagonist ([1]; test sample 200 μM): 82.1 ± 0.918% | TRPA1 activation rates ([1]; test sample 200 μM, Table 10): 85.7 ± 1.62% | Cumulative amounts of food ingested of mice ([2]; 0.5 hour after the administration): 0.21 ± 0.033 g | Cumulative amounts of food ingested of mice ([2]; 1 hour after the administration): 0.25 ± 0.027 g | Cumulative amounts of food ingested of mice ([2]; 2 hours after the administration): 0.42 ± 0.020 g | Cumulative amounts of food ingested of mice ([2]; 3 hours after the administration): 0.49 ± 0.035 g | Significant increase in the cumulative amounts of food ingested where A-967079 was administered (in words) ([2]; rhein 100 μmol/kg with A-967079 10 μmol/kg): not observed | TRPM8 activation (in words) ([3]; hTRPM8 stably expressing cell line): not activated | TRPM8 activation rate ([3]; test sample 100 μM): 2.52 ± 0.0847% | TRPM8 activation rate ([3]; test sample 200 μM): 5.71 ± 0.118%
